Reference: patent US9580416B2, “Inhibitors of Bruton's tyrosine kinase” (PHARMACYCLICS LLC, priority 2014, dated 2017)

Assays:
Type in all cases: biochemical
Btk = Btk (Homo sapiens, UniProt Q06187); assay: Btk kinase activity, TR-FRET assay; settings: read-out: Btk (IC50)
Summary of the method: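 Enzyme (Btk 0.5 nM; Lck 6 nM) reacted 1 h with inhibitor, ATP at Km and biotin-peptide substrate in pH 7.4 buffer, 10% DMSO. Phosphopeptide detected by Eu-p-Tyr100 antibody plus streptavidin-APC (665/615 nm). IC50 calculated from fitted Ki(app) via ATP/Km correction plus half total enzyme.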

Lck = Lck (Homo sapiens, UniProt P06239); assay: Lck kinase activity, TR-FRET assay; settings: read-out: LCK (IC50)
Experimental: Btk kinase activity is determined using a time-resolved fluorescence resonance energy transfer (TR-FRET) methodology. Measurements are performed in a reaction volume of 50 μL using 96-well assay plates. Kinase enzyme, inhibitor, ATP (at the Km for the kinase), and 1 […] (Biotin-AVLESEEELYSSARQ-NH2) are incubated in a reaction buffer composed of 20 mM Tris, 50 mM NaCl, MgCl2 (5-25 mM depending on the kinase), MnCl2 (0-10 mM), 1 mM DTT, 0.1 mM EDTA, 0.01% bovine serum albumin, 0.005% Tween-20, and 10% DMSO at pH 7.4 for one hour. The reaction is quenched by the addition of 1.2 equivalents of EDTA (relative to divalent cation) in 25 μL of 1× Lance buffer (Perkin-Elmer). Streptavidin-APC (Perkin-Elmer) and Eu-labeled p-Tyr100 antibody (Perkin-Elmer) in 1× Lance buffer are added in a 25 μL volume to give final concentrations of 100 nM and 2.5 nM, respectively, and the mixture is allowed to incubate for one hour. The TR-FRET signal is measured on a multimode plate reader with an excitation wavelength (λEx) of 330 nm and detection wavelengths (λEm) of 615 and 665 nm. Activity is determined by the ratio of the fluorescence at 665 nm to that at 615 nm. For each compound, enzyme activity is measured at various concentrations of compound. Negative control reactions are performed in the absence of inhibitor in replicates of six, and two no-enzyme controls are used to determine baseline fluorescence levels. Inhibition constants, Ki(app), ware obtained using the program BatchKi (Kuzmic et al. (2000), Anal. Biochem. 286:45-50). IC50s are obtained according to the equation: IC50={Ki(app)/(1+[ATP]/Km^ATP)}+[E]total/2;
For all kinases, [ATP]=Km^ATP, [Btk]total=0.5 nM and [Lck]total=6 nM.

EGFR = EGFR (Homo sapiens, UniProt P00533); assay: Inhibition of a panel of kinases, in vitro HotSpot kinase assay: EGFR
Experimental: The degree of inhibition of a panel of kinases is determined using the in vitro HotSpot kinase assay (purified enzymes, ^33P-ATP, an appropriate substrate and 1 uM ATP).

Btk, sequence (Q06187 whole entry): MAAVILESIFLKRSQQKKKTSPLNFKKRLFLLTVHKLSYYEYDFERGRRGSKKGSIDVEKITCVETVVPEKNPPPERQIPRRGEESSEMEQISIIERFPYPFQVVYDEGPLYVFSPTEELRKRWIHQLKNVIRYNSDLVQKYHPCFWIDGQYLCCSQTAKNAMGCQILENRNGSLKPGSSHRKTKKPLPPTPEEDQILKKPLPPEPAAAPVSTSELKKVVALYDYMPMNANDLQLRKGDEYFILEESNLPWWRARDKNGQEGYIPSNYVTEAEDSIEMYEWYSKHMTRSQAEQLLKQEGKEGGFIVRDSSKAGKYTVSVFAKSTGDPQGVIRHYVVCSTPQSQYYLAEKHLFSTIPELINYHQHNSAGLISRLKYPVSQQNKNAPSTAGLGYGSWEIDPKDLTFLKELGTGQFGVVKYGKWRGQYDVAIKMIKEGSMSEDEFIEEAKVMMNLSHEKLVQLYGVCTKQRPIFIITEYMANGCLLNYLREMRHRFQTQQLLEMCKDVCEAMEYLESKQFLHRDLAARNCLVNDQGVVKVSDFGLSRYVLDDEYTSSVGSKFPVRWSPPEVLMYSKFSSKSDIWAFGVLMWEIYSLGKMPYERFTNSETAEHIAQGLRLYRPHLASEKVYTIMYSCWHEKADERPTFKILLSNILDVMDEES
EGFR, sequence (P00533 25-1210): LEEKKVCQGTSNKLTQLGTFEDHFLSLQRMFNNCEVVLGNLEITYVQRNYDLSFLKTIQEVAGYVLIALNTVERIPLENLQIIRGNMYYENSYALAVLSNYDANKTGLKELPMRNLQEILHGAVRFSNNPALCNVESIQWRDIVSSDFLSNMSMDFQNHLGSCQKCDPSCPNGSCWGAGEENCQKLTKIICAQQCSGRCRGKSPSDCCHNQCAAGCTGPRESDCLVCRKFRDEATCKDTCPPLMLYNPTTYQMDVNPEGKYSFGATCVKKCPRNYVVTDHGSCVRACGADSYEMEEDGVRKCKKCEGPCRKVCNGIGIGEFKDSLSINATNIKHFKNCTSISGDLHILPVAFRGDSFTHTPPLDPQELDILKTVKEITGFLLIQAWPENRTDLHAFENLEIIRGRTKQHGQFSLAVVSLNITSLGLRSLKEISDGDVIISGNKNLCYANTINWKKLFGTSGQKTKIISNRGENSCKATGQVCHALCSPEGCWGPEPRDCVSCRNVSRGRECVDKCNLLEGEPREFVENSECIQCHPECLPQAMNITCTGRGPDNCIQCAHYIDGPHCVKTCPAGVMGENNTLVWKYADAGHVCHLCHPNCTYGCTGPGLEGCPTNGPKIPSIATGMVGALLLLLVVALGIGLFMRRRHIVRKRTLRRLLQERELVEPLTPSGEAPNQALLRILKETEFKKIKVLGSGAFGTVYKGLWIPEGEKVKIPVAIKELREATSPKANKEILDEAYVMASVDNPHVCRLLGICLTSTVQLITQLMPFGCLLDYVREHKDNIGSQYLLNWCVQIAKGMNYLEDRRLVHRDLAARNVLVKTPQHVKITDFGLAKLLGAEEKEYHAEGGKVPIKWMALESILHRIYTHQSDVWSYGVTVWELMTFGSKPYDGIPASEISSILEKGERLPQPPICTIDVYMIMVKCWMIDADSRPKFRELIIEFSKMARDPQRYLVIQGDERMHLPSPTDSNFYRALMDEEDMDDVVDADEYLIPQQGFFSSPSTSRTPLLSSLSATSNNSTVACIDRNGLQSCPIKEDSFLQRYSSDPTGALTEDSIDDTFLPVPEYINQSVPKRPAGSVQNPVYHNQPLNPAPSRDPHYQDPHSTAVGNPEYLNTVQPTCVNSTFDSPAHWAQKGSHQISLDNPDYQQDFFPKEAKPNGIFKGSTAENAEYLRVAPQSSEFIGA
Lck, sequence (P06239 whole entry, species assumed): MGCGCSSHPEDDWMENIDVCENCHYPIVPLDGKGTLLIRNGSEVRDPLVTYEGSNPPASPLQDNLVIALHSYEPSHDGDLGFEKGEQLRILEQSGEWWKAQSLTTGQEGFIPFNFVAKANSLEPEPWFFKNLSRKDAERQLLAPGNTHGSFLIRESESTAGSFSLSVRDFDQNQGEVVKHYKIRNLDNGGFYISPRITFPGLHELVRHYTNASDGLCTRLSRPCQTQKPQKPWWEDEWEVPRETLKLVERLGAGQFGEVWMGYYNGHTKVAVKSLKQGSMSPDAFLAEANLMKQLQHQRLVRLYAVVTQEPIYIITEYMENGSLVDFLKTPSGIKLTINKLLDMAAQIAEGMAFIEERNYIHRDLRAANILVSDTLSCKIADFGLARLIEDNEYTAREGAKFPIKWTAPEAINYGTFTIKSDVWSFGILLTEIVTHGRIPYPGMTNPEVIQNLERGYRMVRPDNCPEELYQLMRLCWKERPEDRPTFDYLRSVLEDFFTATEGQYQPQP

Compound	IC50 (Btk)	IC50 (Lck)	IC50 (EGFR)
CN(C/C=C/C(=O)N1CCCC[C@H]1CNc1n[nH]c2nccc(Oc3ccc(Oc4ccccc4)cc3)c12)C1CC1 [compound 37]	< 100 nM	100 to 1000 nM	1000 to 10000 nM
CN(C)C/C=C/C(=O)N1CCCC(c2n[nH]c3nccc(Oc4ccc(Oc5ccccc5)cc4)c23)C1 (stereo not drawn) [compound 32, (2E)-4-(dimethylamino)-1-{3-[4-(4-phenoxyphenoxy)-1H-pyrazolo[3,4-b]pyridin-3-yl]piperidin-1-yl}but-2-en-1-one]	< 100 nM	< 100 nM	100 to 1000 nM
N#C/C(=C\C1CC1)C(=O)N1CC[C@@H](Nc2n[nH]c3nccc(Oc4ccc(Oc5ccccc5)cc4)c23)C1 [compound 18, (2E)-3-cyclopropyl-2-[(E)-(3R)-{[4-(4-phenoxyphenoxy)-1H-pyrazolo[3,4-b]pyridin-3-yl]amino}pyrrolidine-1-carbonyl]prop-2-enenitrile]	< 100 nM	100 to 1000 nM	< 100 nM
CN(C)C/C=C/C(=O)N1CC[C@@H](Oc2n[nH]c3nccc(Nc4cccc(Oc5ccccc5)c4)c23)C1 [compound 17, (2E)-4-(dimethylamino)-1-[(3R)-3-({4-[(3-phenoxyphenyl)amino]-1H-pyrazolo[3,4-b]pyridin-3-yl}oxy)pyrrolidin-1-yl]but-2-en-1-one]	< 100 nM	100 to 1000 nM	< 100 nM
CN(C/C=C/C(=O)N1CC[C@@H](Nc2n[nH]c3nccc(Oc4ccc(Oc5ccccc5)cc4C#N)c23)C1)C1CC1 [compound 35, 2-[(3-{[(3R)-1-[(2E)-4-[cyclopropyl(methyl)amino]but-2-enoyl]pyrrolidin-3-yl]amino}-1H-pyrazolo[3,4-b]pyridin-4-yl)oxy]-5-phenoxybenzonitrile]	100 to 1000 nM	1000 to 10000 nM	> 10000 nM
CN(C)C/C=C/C(=O)N1CC[C@@H](Nc2n[nH]c3nccc(Oc4ccc(Oc5ccccc5)cc4S(N)(=O)=O)c23)C1 [compound 25, 2-[(3-{[(3R)-1-[(2E)-4-(dimethylamino)but-2-enoyl]pyrrolidin-3-yl]amino}-1H-pyrazolo[3,4-b]pyridin-4-yl)oxy]-5-phenoxybenzene-1-sulfonamide]	100 to 1000 nM	100 to 1000 nM	100 to 1000 nM
CN(C)C/C=C/C(=O)N1CC[C@@H](Nc2n[nH]c3nccc(Oc4cccc(Nc5ccncn5)c4)c23)C1 [compound 20, (2E)-4-(dimethylamino)-1-[(3R)-3-[(4-{3-[(pyrimidin-4-yl)amino]phenoxy}-1H-pyrazolo[3,4-b]pyridin-3-yl)amino]pyrrolidin-1-yl]but-2-en-1-one]	> 10000 nM	> 10000 nM	1000 to 10000 nM
N#C/C(=C\C1CCC1)C(=O)N1CC[C@@H](Nc2n[nH]c3nccc(Oc4ccc(Oc5ccccc5)cc4)c23)C1 [compound 27, (2E)-3-cyclobutyl-2-[(E)-(3R)-3-{[4-(4-phenoxyphenoxy)-1H-pyrazolo[3,4-b]pyridin-3-yl]amino}pyrrolidine-1-carbonyl]prop-2-enenitrile]	< 100 nM	100 to 1000 nM	100 to 1000 nM
CN(C)C/C=C/C(=O)N1CC[C@@H](Nc2n[nH]c3nccc(O[C@H]4CCN(c5ccccc5)C4)c23)C1 [compound 24, (2E)-4-(dimethylamino)-1-[(3R)-3-[(4-{[(3S)-1-phenylpyrrolidin-3-yl]oxy}-1H-pyrazolo[3,4-b]pyridin-3-yl)amino]pyrrolidin-1-yl]but-2-en-1-one]	100 to 1000 nM	1000 to 10000 nM	> 10000 nM
CN(C/C=C/C(=O)N1CCC[C@H]1CNc1n[nH]c2nccc(Oc3ccc(Oc4ccccc4)cc3)c12)C1CC1 [compound 36]	< 100 nM	< 100 nM	1000 to 10000 nM
CN(C/C=C/C(=O)N1CC[C@@H](Nc2n[nH]c3nccc(Oc4ccc(Oc5ccccc5)cc4)c23)C1)C1CC1 [compound 10, (2E)-4-[cyclopropyl(methyl)amino]-1-[(3R)-3-{[4-(4-phenoxyphenoxy)-1H-pyrazolo[3,4-b]pyridin-3-yl]amino}pyrrolidin-1-yl]but-2-en-1-one]	< 100 nM	< 100 nM	100 to 1000 nM

Continued, values first:

IC50 (Btk)	IC50 (Lck)	IC50 (EGFR)	Compound
100 to 1000 nM	< 100 nM	100 to 1000 nM	N#CCNC(=O)c1cc(Nc2n[nH]c3nccc(Oc4ccc(Oc5ccccc5)cc4)c23)ccn1 [compound 65]
100 to 1000 nM	> 10000 nM	1000 to 10000 nM	Cc1cnc(NC(=O)c2ccc(Oc3ccnc4[nH]nc(C5CCCN(C(=O)C6CC6)C5)c34)cc2)s1 (stereo not drawn) [compound 193]
< 100 nM	100 to 1000 nM	< 100 nM	COCCC(=O)N1CCC[C@@H](Nc2n[nH]c3nccc(Oc4ccc(C(=O)Nc5cc(C#N)ccn5)cc4)c23)C1 [compound 80, N-(4-cyanopyridin-2-yl)-4-[(3-{[(3R)-1-(3-methoxypropanoyl)piperidin-3-yl]amino}-1H-pyrazolo[3,4-b]pyridin-4-yl)oxy]benzamide]
< 100 nM	< 100 nM	100 to 1000 nM	CC(=O)N1CC[C@@H](Nc2n[nH]c3nccc(Oc4ccc(Oc5ccccc5)cc4)c23)C1 [compound 46]
100 to 1000 nM	100 to 1000 nM	> 10000 nM	CCC(=O)N1CC[C@@H](Nc2n[nH]c3nccc(Oc4ccc(C(=O)Nc5nc6ccccc6[nH]5)cc4)c23)C1 [compound 69]
< 100 nM	1000 to 10000 nM	1000 to 10000 nM	CCC(=O)N1CC[C@@H](Nc2n[nH]c3nccc(Oc4ccc(C(=O)Nc5ncc(C)s5)cc4)c23)C1 [compound 190]
< 100 nM	100 to 1000 nM	1000 to 10000 nM	CN(C/C=C/C(=O)N1CC[C@@H](Nc2n[nH]c3nccc(Oc4ccc(C(=O)Nc5cc(C6CC6)ccn5)cc4)c23)C1)C1CC1 [compound 60]
< 100 nM	100 to 1000 nM	100 to 1000 nM	CN(C(=O)/C=C/CN(C)C1CC1)c1cccc(Nc2n[nH]c3nccc(Oc4ccc(Oc5ccccc5)cc4)c23)c1 [compound 38]
< 100 nM	1000 to 10000 nM	1000 to 10000 nM	CN(C/C=C/C(=O)N1CC[C@@H](Nc2n[nH]c3nccc(Oc4ccc(C(=O)Nc5cc(C#N)ccn5)cc4)c23)C1)C1CC1 [compound 62]
> 10000 nM	> 10000 nM	> 10000 nM	CCC(=O)N1CC[C@@H](Nc2n[nH]c3nccc(Oc4ccc(C(=O)Nc5nccn5C)cc4)c23)C1 [compound 73, N-(1-methyl-1H-imidazol-2-yl)-4-[(3-{[(3R)-1-propanoylpyrrolidin-3-yl]amino}-1H-pyrazolo[3,4-b]pyridin-4-yl)oxy]benzamide]
< 100 nM	1000 to 10000 nM	> 10000 nM	Cc1ccnc(NC(=O)c2ccc(Oc3ccnc4[nH]nc(N[C@@H]5CCCN(C(=O)C6(C)CCOCC6)C5)c34)cc2)c1 [compound 87, 4-[(3-{[(3R)-1-(4-methyloxane-4-carbonyl)piperidin-3-yl]amino}-1H-pyrazolo[3,4-b]pyridin-4-yl)oxy]-N-(4-methylpyridin-2-yl)benzamide]
100 to 1000 nM	100 to 1000 nM	1000 to 10000 nM	CCNC(=O)N1CCCC(c2n[nH]c3nccc(Oc4ccc(C(=O)Nc5cc(C(F)(F)F)ccn5)cc4)c23)C1 (stereo not drawn) [compound 186]
< 100 nM	100 to 1000 nM	< 100 nM	CCNC(=O)N1CCC[C@@H](Nc2n[nH]c3nccc(Oc4ccc(C(=O)Nc5cc(C#N)ccn5)cc4)c23)C1 [compound 79, (3R)-3-[(4-{4-[(4-cyanopyridin-2-yl)carbamoyl]phenoxy}-1H-pyrazolo[3,4-b]pyridin-3-yl)amino]-N-ethylpiperidine-1-carboxamide]
< 100 nM	100 to 1000 nM	1000 to 10000 nM	CCOC(=O)N1CCC[C@@H](Nc2n[nH]c3nccc(Oc4ccc(C(=O)Nc5cc(C#N)ccn5)cc4)c23)C1 [compound 78, ethyl (3R)-3-[(4-{4-[(4-cyanopyridin-2-yl)carbamoyl]phenoxy}-1H-pyrazolo[3,4-b]pyridin-3-yl)amino]piperidine-1-carboxylate]
< 100 nM	1000 to 10000 nM	> 10000 nM	Cc1ccnc(NC(=O)c2ccc(Oc3ccnc4[nH]nc(N[C@@H]5CCCN(C(=O)C6(C)CCOC6)C5)c34)cc2)c1 (stereo partly drawn) [compound 89, 4-[(3-{[(3R)-1-(3-methyloxolane-3-carbonyl)piperidin-3-yl]amino}-1H-pyrazolo[3,4-b]pyridin-4-yl)oxy]-N-(4-methylpyridin-2-yl)benzamide]
